Patent US20230127326A1, “C3-SUBSTITUTED 1H-PYRAZOLO[4,3-d]PYRIMIDINE COMPOUNDS AS TOLL-LIKE RECEPTOR 7 (TLR7) AGONISTS” (BRISTOL-MYERS SQUIBB COMPANY, priority 2020, published 2023)

Key:
human TLR7 = target: T1, human TLR7 (Homo sapiens, UniProt Q9NYK1); assay: Human TLR7 agonist activity reporter assay (HEK-Blue TLR7 cells, SEAP reporter); assay type: cell-based; conditions: 18 h treatment, average where assay was performed multiple times, read-out: hTLR7 Agonism EC50
T1 construct: host or cells: HEK-Blue TLR7 cells (engineered human embryonic kidney cells)
T1 sequence (Q9NYK1 27-1049): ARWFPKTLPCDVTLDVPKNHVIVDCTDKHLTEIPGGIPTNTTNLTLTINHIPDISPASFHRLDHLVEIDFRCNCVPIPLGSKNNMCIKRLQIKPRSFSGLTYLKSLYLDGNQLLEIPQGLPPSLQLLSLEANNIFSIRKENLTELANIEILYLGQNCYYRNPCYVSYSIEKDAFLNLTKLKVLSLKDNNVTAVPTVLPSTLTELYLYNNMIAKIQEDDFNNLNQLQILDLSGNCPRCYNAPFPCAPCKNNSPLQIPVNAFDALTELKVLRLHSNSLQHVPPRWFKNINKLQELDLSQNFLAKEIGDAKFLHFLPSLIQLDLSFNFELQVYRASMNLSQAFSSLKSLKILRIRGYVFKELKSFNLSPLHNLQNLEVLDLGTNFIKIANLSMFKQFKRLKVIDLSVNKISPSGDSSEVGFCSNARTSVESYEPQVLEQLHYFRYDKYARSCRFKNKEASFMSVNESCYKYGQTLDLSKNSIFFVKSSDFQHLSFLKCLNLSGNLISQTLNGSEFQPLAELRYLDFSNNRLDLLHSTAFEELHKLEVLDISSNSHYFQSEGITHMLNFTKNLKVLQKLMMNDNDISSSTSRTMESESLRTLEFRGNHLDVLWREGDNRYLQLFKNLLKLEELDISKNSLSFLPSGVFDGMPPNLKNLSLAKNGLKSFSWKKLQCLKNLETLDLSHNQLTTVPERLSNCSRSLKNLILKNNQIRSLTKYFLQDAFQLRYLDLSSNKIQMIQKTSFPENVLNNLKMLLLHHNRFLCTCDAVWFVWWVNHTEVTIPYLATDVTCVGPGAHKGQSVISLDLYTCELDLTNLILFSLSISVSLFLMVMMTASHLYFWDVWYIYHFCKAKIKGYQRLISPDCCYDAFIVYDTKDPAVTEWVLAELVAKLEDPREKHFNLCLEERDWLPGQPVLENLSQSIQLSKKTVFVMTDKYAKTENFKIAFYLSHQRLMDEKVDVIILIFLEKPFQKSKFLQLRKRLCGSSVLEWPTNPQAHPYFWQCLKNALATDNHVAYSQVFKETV
Experimental: This procedure describes a method for assaying human TLR7 (hTLR7) agonist activity of the compounds disclosed in this specification.
HEK-Blue™ TLR7 cells were added to each well of a 384-well tissue-culture plate (15,000 cells per well) and incubated 16-18 h at 37° C., 5% CO2. Compounds (100 nl) were dispensed into wells containing the HEK-Blue™ TLR cells and the treated cells were incubated at 37° C., 5% CO2. After 18 h treatment ten microliters of freshly-prepared Quanti-Blue™ reagent (Invivogen) was added to each well, incubated for 30 min (37° C., 5% CO2) and SEAP levels measured using an Envision plate reader (OD=620 nm). The half maximal effective concentration values (EC50; compound concentration which induced a response halfway between the assay baseline and maximum) were calculated.

CD69 = assay: Induction of CD69 in human whole blood; assay type: cell-based; conditions: 17 hrs at 37° C., y-axis 100% set to 1 uM of resiquimod, average where assay was performed multiple times, read-out: hWB CD69 EC50
Experimental: The induction of Type I interferon (IFN) MX-1 genes and the B-cell activation marker CD69 are downstream events that occur upon activation of the TLR7 pathway. The following is a human whole blood assay that measures their induction in response to a TLR7 agonist.
Heparinized human whole blood was harvested from human subjects and treated with test TLR7 agonist compounds at 1 mM. The blood was diluted with RPMI 1640 media and Echo was used to predot 10 nL per well giving a final concentration of 1 uM (10 nL in 10 uL of blood). After mixing on a shaker for 30 sec, the plates were covered and placed in a 37° C. chamber for o/n=17 hrs. Fixing/lysis buffer was prepared (5×->1× in H2O, warm at 37° C.; Cat #BD 558049) and kept the perm buffer (on ice) for later use.
For surface markers staining (CD69): prepared surface Abs: 0.045 ul hCD14-FITC (ThermoFisher Cat #MHCD1401)+0.6 ul hCD19-ef450 (ThermoFisher Cat #48-0198-42)+1.5 ul hCD69-PE (cat #BD555531)+0.855 ul FACS buffer. Added 3 ul/well, spin 1000 rpm for 1 min and mixed on shaker for 30 sec, put on ice for 30 mins. Stop stimulation after 30 minutes with 70 uL of prewarmed 1× fix/lysis buffer and use Feliex mate to resuspend (15 times, change tips for each plate) and incubate at 37 C for 10 minutes.
Centrifuge at 2000 rpm for 5 minutes aspirate with HCS plate washer, mix on shaker for 30 sec and then wash with 70 uL in dPBS and pelleted 2×s (2000 rpm for 5 min) and 50 ul wash in FACS buffer pelleted 1×s (2000 rpm for 5 min). Mix on shaker for 30 sec. For Intracellular markers staining (MX-1): Add 50 ul of BD Perm buffer III and mix on shaker for 30 sec. Incubate on ice for 30 minutes (in the dark). Wash with 50 uL of FACS buffer 2× (spin @2300 rpm×5 min after perm) followed by mixing on shaker for 30 sec. Resuspended in 20 ul of FACS buffer containing MX1 antibody ( )(4812)-Alexa 647: Novus Biologicals #NBP2-43704AF647) 20 ul FACS bf+0.8 ul hIgG+0.04 ul MX-1. Spin 1000 rpm for 1 min, mix on shaker for 30 se and the samples were incubated at RT in the dark for 45 minutes followed by washing 2×FACS buffer (spin @2300 rpm×5 min after perm). Resuspend 20 ul (35 uL total per well) of FACS buffer and cover with foil and place in 4° C. to read the following day. Plates were read on iQuePlus. The results were loaded into toolset and […] curves are generated in curve master. The y-axis 100% is set to 1 uM of resiquimod.

SMILES	EC50 (human TLR7)	EC50 (CD69)
CCC[C@@H](CCO)Nc1nc(N)nc2c(F)nn(Cc3ccc(CN[C@@H]4COC[C@H]4O)cc3OC)c12 [Compound 132, (3S,4R)-4-[({4-[(5-amino-3-fluoro-7-{[(3S)-1-hydroxy-hexan-3-yl]amino}-1H-pyrazolo[4,3-d]pyrimidin-1-yl)-methyl]-3-methoxyphenyl}-methyl)amino]oxolan-3-ol]	0.0404 µM	0.0093 µM
CCC[C@@H](CCO)Nc1nc(N)nc2c(C)nn(Cc3ncc(CN4CCN(CCO)CC4)cc3OC)c12 [Compound 135, (3S)-3-({5-amino-1-[(5-{[4-(2-hydroxyethyl)piperazin-1-yl]methyl}-3-methoxypyridin-2-yl)methyl]-3-methyl-1H-pyrazolo[4,3-d]pyrimidin-7-yl}amino)hexan-1-ol]	1.11 µM	–
CCCCNc1nc(N)nc2c(C3CCOC3)nn(Cc3ccc(CNC4CCOCC4)cc3OC)c12 (centres unmarked) [Compound 124, N7-butyl-1-[(2-methoxy-4-{[(oxan-4-yl)amino]methyl}-phenyl)methyl]-3-(oxolan-3-yl)-1H-pyrazolo[4,3-d]pyrimidine-5,7-diamine]	0.798 µM	0.339 µM
CCC[C@@H](CO)Nc1nc(N)nc2c(C)nn(Cc3ccc(CN4CCN(CCO)CC4)cc3OC)c12 [Compound 125, (2S)-2-({5-amino-1-[(4-{[4-(2-hydroxyethyl)piperazin-1-yl]methyl}-2-methoxy-phenyl)methyl]-3-methyl-1H-pyrazolo[4,3-d]pyrimidin-7-yl}amino)pentan-1-ol]	0.236 µM	0.237 µM
CCCCNc1nc(N)nc2c(C(C)C)nn(Cc3ccc(CNC4CCOCC4)cc3OC)c12 [Compound 123, N7-butyl-1-[(2-methoxy-4-{[(oxan-4-yl)amino]methyl}-phenyl)methyl]-3-(propan-2-yl)-1H-pyrazolo[4,3-d]pyrimidine-5,7-diamine]	1.04 µM	0.418 µM
CCCCNc1nc(N)nc2c(C)nn(Cc3ccc(CN4CCN(CCO)CC4)cc3OC)c12 [Compound 106, 2-{4-[(4-{[5-amino-7-(butylamino)-3-methyl-1H-pyrazolo[4,3-d]pyrimidin-1-yl]methyl}-3-methoxy-phenyl)methyl]piperazin-1-yl}ethan-1-ol]	0.0633 µM	0.0206 µM
CCCCNc1nc(N)nc2c(C)nn(Cc3ccc(CN4CCN(CCOC)CC4)cc3OC)c12 [Compound 136, N7-butyl-1-[(2-methoxy-4-{[4-(2-methoxyethyl)piperazin-1-yl]methyl}phenyl)methyl]-3-methyl-1H-pyrazolo[4,3-d]pyrimidine-5,7-diamine]	0.163 µM	–
CCC[C@@H](CCO)Nc1nc(N)nc2c(C)nn(Cc3ccc(CO)cc3OC)c12 [Compound 126, (3S)-3-[(5-amino-1-{[4-(hydroxymethyl)-2-methoxyphenyl]methyl}-3-methyl-1H-pyrazolo[4,3-d]pyrimidin-7-yl)amino]hexan-1-ol]	0.0634 µM	0.0902 µM
CCCCNc1nc(N)nc2c(C(F)(F)F)nn(Cc3ccc(CNC4CCOCC4)cc3OC)c12 [Compound 117, N7-butyl-1-[(2-methoxy-4-{[(oxan-4-yl)amino]methyl}-phenyl)methyl]-3-(trifluoro-methyl)-1H-pyrazolo[4,3-d]pyrimidine-5,7-diamine]	–	1 µM
CCCCNc1nc(N)nc2c(C)nn(Cc3ccc(CN4CCN(CC(C)(C)O)CC4)cc3OC)c12 [Compound 137, 1-{4-[(4-{[5-amino-7-(butylamino)-3-methyl-1H-pyrazolo[4,3-d]pyrimidin-1-yl]methyl}-3-methoxyphenyl)methyl]piperazin-1-yl}-2-methylpropan-2-ol]	0.0658 µM	–

Further lines, results first:

EC50 (human TLR7)	EC50 (CD69)	SMILES
1.43 µM	0.709 µM	CCCCNc1nc(N)nc2c(-c3cc[nH]n3)nn(Cc3ccc(CNC4CCOCC4)cc3OC)c12 [Compound 116, N7-butyl-1-[(2-methoxy-4-{[(oxan-4-yl)amino]methyl}-phenyl)methyl]-3-(1H-pyrazol-3-yl)-1H-pyrazolo[4,3-d]pyrimidine-5,7-diamine]
0.21 µM	0.0345 µM	CCCCNc1nc(N)nc2c(C3CC3)nn(Cc3ccc(CNC4CCOCC4)cc3OC)c12 [Compound 102, N7-butyl-3-cyclopropyl-1-[(2-methoxy-4-{[(oxan-4-yl)amino]methyl}phenyl)-methyl]-1H-pyrazolo[4,3-d]pyrimidine-5,7-diamine]
1.56 µM	0.64 µM	CCCCNc1nc(N)nc2c(C3=CCOC3)nn(Cc3ccc(CNC4CCOCC4)cc3OC)c12 [Compound 121, N7-butyl-3-(2,5-dihydro-furan-3-yl)-1-[(2-methoxy-4-{[(oxan-4-yl)amino]methyl}-phenyl)methyl]-1H-pyrazolo[4,3-d]pyrimidine-5,7-diamine]
0.334 µM	0.199 µM	CCCCNc1nc(N)nc2c(CO)nn(Cc3ccc(CN4CC(OC)C4)cc3OC)c12 [Compound 120, [5-amino-7-(butylamino)-1-({2-methoxy-4-[(3-methoxy-azetidin-1-yl)methyl]phenyl}-methyl)-1H-pyrazolo[4,3-d]pyrimidin-3-yl]methanol]
0.0938 µM	0.0075 µM	CCC[C@@H](CCO)Nc1nc(N)nc2c(C)nn(Cc3ccc(CN[C@@H]4CCCOC4)cc3OC)c12 [Compound 130, (3S)-3-[(5-amino-1-{[2-methoxy-4-({[(3R)-oxan-3-yl]amino}methyl)phenyl]-methyl}-3-methyl-1H-pyrazolo[4,3-d]pyrimidin-7-yl)amino]hexan-1-ol]
0.0229 µM	0.0449 µM	CCCCNc1nc(N)nc2c(F)nn(Cc3ccc(CN4CCN(CCO)CC4)cc3OC)c12 [Compound 110, 2-{4-[(4-{[5-amino-7-(butylamino)-3-fluoro-1H-pyrazolo[4,3-d]pyrimidin-1-yl]methyl}-3-methoxyphenyl)methyl]-piperazin-1-yl}ethan-1-ol]
–	1 µM	CCCCNc1nc(N)nc2c(-c3ccccc3)nn(Cc3ccc(CNC4CCOCC4)cc3OC)c12 [Compound 113, N7-butyl-1-[(2-methoxy-4-{[(oxan-4-yl)amino]methyl}-phenyl)methyl]-3-phenyl-1H-pyrazolo[4,3-d]pyrimidine-5,7-diamine]
